# Assay results from PubChem BioAssay (NCI).
#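 96-well plates; 48 h exposure; 5 concentrations. Endpoints by linear interpolation between flanking doses. Not reached: highest tested concentration assigned. The concentration for full growth arrest is given as TGI.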
# Columns and labels:
# Assay in all cases: NCI anticancer screen, dose series, 48 h
# [1] = tested on: 786-0 renal
# [2] = tested on: A549 NSCLC
# [3] = tested on: ACHN renal
# [4] = tested on: CAKI-1 renal
# [5] = tested on: CCRF-CEM leukemia
# [6] = tested on: COLO 205 colon
# [7] = tested on: DU-145 prostate
# [8] = tested on: EKVX NSCLC
# [9] = tested on: HCT-116 colon
# [10] = tested on: HCT-15 colon
# [11] = tested on: HL-60(TB) leukemia
# [12] = tested on: HOP-62 NSCLC
# [13] = tested on: HS 578T breast
# [14] = tested on: HT29 colon
# [15] = tested on: KM12 colon
# [16] = tested on: LOX IMVI melanoma
# [17] = tested on: M14 melanoma
# [18] = tested on: MALME-3M melanoma
# [19] = tested on: MCF7 breast
# [20] = tested on: MDA-N
# [21] = tested on: MOLT-4 leukemia
# [22] = tested on: NCI-H226 lung
# [23] = tested on: NCI-H23 lung
# [24] = tested on: NCI-H522 lung
# [25] = tested on: NCI/ADR-RES ovarian
# [26] = tested on: OVCAR-3 ovarian
# [27] = tested on: OVCAR-5 ovarian
# [28] = tested on: OVCAR-8 ovarian
# [29] = tested on: PC-3 prostate
# [30] = tested on: RPMI-8226 leukemia
# [31] = tested on: RXF 393 renal
# [32] = tested on: SF-268 CNS
# [33] = tested on: SF-295 CNS
# [34] = tested on: SF-539 CNS
# [35] = tested on: SK-MEL-2 melanoma
# [36] = tested on: SK-MEL-28 melanoma
# [37] = tested on: SK-MEL-5 melanoma
# [38] = tested on: SK-OV-3 ovarian
# [39] = tested on: SN12C renal
# [40] = tested on: SNB-19 CNS
# [41] = tested on: SNB-75 CNS
# [42] = tested on: SW-620 colon
# [43] = tested on: T-47D breast
# [44] = tested on: TK-10 renal
# [45] = tested on: U251 CNS
# [46] = tested on: UACC-257 melanoma
# [47] = tested on: UACC-62 melanoma
# [48] = tested on: UO-31 renal
# [49] = tested on: A498 renal
# [50] = tested on: BT-549 breast
# [51] = tested on: HCC-2998 colon
# [52] = tested on: IGROV1 ovarian
# [53] = tested on: K-562 leukemia
# [54] = tested on: MDA-MB-231 breast
# [55] = tested on: MDA-MB-435
# [56] = tested on: NCI-H460 lung
# [57] = tested on: OVCAR-4 ovarian
# [58] = tested on: HOP-92 NSCLC
# [59] = tested on: SR leukemia
smiles,measurement,setting,value
COc1ccc(CN=C(N)N)c2ccccc12,TGI,[1],> 100 µM
same,TGI,[2],> 100 µM
same,TGI,[3],> 100 µM
same,TGI,[4],> 100 µM
same,TGI,[5],> 100 µM
same,TGI,[6],38 µM
same,TGI,[7],> 100 µM
same,TGI,[8],> 100 µM
same,TGI,[9],> 100 µM
same,TGI,[10],> 100 µM
same,TGI,[11],91 µM
same,TGI,[12],> 100 µM
same,TGI,[13],54.9 µM
same,TGI,[14],> 100 µM
same,TGI,[15],> 100 µM
same,TGI,[16],> 100 µM
same,TGI,[17],> 100 µM
same,TGI,[18],34.7 µM
same,TGI,[19],> 100 µM
same,TGI,[20],> 100 µM
same,TGI,[21],> 100 µM
same,TGI,[22],> 100 µM
same,TGI,[23],> 100 µM
same,TGI,[24],> 100 µM
same,TGI,[25],> 100 µM
same,TGI,[26],> 100 µM
same,TGI,[27],73.4 µM
same,TGI,[28],> 100 µM
same,TGI,[29],> 100 µM
same,TGI,[30],> 100 µM
same,TGI,[31],> 100 µM
same,TGI,[32],38.8 µM
same,TGI,[33],36.7 µM
same,TGI,[34],52.8 µM
same,TGI,[35],86.9 µM
same,TGI,[36],86.5 µM
same,TGI,[37],38 µM
same,TGI,[38],> 100 µM
same,TGI,[39],52.4 µM
same,TGI,[40],> 100 µM
same,TGI,[41],55.2 µM
same,TGI,[42],> 100 µM
same,TGI,[43],> 100 µM
same,TGI,[44],> 100 µM
same,TGI,[45],74.7 µM
same,TGI,[46],> 100 µM
same,TGI,[47],> 100 µM
same,TGI,[48],87.9 µM
CC(=O)OC1COC(Nc2nc(NCc3ccccc3)n(C)c(=O)c2N=O)C(OC(C)=O)C1OC(C)=O (stereo not drawn),TGI,[1],> 10 µM
same,TGI,[49],> 10 µM
same,TGI,[2],> 10 µM
same,TGI,[3],> 10 µM
same,TGI,[50],> 10 µM
same,TGI,[4],> 10 µM
same,TGI,[5],> 10 µM
same,TGI,[6],> 10 µM
same,TGI,[7],> 10 µM
same,TGI,[8],> 10 µM
same,TGI,[51],> 10 µM
same,TGI,[9],> 10 µM
same,TGI,[10],> 10 µM
same,TGI,[11],> 10 µM
same,TGI,[12],> 10 µM
same,TGI,[13],> 10 µM
same,TGI,[14],> 10 µM
same,TGI,[52],> 10 µM
same,TGI,[53],> 10 µM
same,TGI,[15],> 10 µM
same,TGI,[16],> 10 µM
same,TGI,[17],> 10 µM
same,TGI,[18],> 10 µM
same,TGI,[19],> 10 µM
same,TGI,[54],> 10 µM
same,TGI,[55],> 10 µM
same,TGI,[20],> 10 µM
same,TGI,[21],> 10 µM
same,TGI,[22],> 10 µM
same,TGI,[23],> 10 µM
same,TGI,[56],> 10 µM
same,TGI,[24],> 10 µM
same,TGI,[25],> 10 µM
same,TGI,[26],> 10 µM
same,TGI,[57],> 10 µM
same,TGI,[27],> 10 µM
same,TGI,[28],> 10 µM
same,TGI,[29],> 10 µM
same,TGI,[30],> 10 µM
same,TGI,[31],> 10 µM
same,TGI,[32],> 10 µM
same,TGI,[33],> 10 µM
same,TGI,[34],> 10 µM
same,TGI,[35],> 10 µM
same,TGI,[36],> 10 µM
same,TGI,[37],> 10 µM
same,TGI,[38],> 10 µM
same,TGI,[39],> 10 µM
same,TGI,[40],> 10 µM
same,TGI,[41],> 10 µM
same,TGI,[42],> 10 µM
same,TGI,[43],> 10 µM
same,TGI,[44],> 10 µM
same,TGI,[45],> 10 µM
same,TGI,[46],> 10 µM
same,TGI,[47],> 10 µM
CCOC(=O)/C(C#N)=C/c1ccnc2ccccc12,TGI,[1],> 100 µM
same,TGI,[49],> 100 µM
same,TGI,[2],> 100 µM
same,TGI,[3],> 100 µM
same,TGI,[50],> 100 µM
same,TGI,[4],> 100 µM
same,TGI,[6],> 100 µM
same,TGI,[7],> 100 µM
same,TGI,[8],> 100 µM
same,TGI,[51],> 100 µM
same,TGI,[9],> 100 µM
same,TGI,[10],> 100 µM
same,TGI,[12],> 100 µM
same,TGI,[58],> 100 µM
same,TGI,[13],> 100 µM
same,TGI,[14],> 100 µM
same,TGI,[52],> 100 µM
same,TGI,[15],> 100 µM
same,TGI,[16],72.1 µM
same,TGI,[17],> 100 µM
same,TGI,[18],> 100 µM
same,TGI,[54],> 100 µM
same,TGI,[55],> 100 µM
same,TGI,[20],> 100 µM
same,TGI,[21],> 100 µM
same,TGI,[22],> 100 µM
same,TGI,[23],> 100 µM
same,TGI,[56],> 100 µM
same,TGI,[24],> 100 µM
same,TGI,[25],52 µM
same,TGI,[26],> 100 µM
same,TGI,[57],> 100 µM
same,TGI,[27],> 100 µM
same,TGI,[28],57 µM
same,TGI,[29],> 100 µM
same,TGI,[30],92.5 µM
same,TGI,[31],> 100 µM
same,TGI,[32],> 100 µM
same,TGI,[33],> 100 µM
same,TGI,[34],50 µM
same,TGI,[35],> 100 µM
same,TGI,[36],> 100 µM
same,TGI,[37],> 100 µM
same,TGI,[38],> 100 µM
same,TGI,[39],> 100 µM
same,TGI,[40],> 100 µM
same,TGI,[41],> 100 µM
same,TGI,[59],64.9 µM
same,TGI,[42],> 100 µM
same,TGI,[43],> 100 µM
same,TGI,[44],> 100 µM
same,TGI,[45],> 100 µM
same,TGI,[46],> 100 µM
same,TGI,[47],> 100 µM
O=[N+]([O-])c1cc2c(cc1/C=N/n1c(CO)nc3ccccc31)OCO2,TGI,[1],> 100 µM
same,TGI,[49],> 100 µM
same,TGI,[2],> 100 µM
same,TGI,[3],> 100 µM
same,TGI,[50],> 100 µM
same,TGI,[4],> 100 µM
same,TGI,[5],> 100 µM
same,TGI,[6],> 100 µM
same,TGI,[7],> 100 µM
same,TGI,[8],> 100 µM
same,TGI,[9],> 100 µM
same,TGI,[10],> 100 µM
same,TGI,[11],> 100 µM
same,TGI,[12],> 100 µM
same,TGI,[58],> 100 µM
same,TGI,[13],> 100 µM
same,TGI,[14],> 100 µM
same,TGI,[53],> 100 µM
same,TGI,[15],> 100 µM
same,TGI,[16],> 100 µM
same,TGI,[17],> 100 µM
same,TGI,[18],> 100 µM
same,TGI,[19],> 100 µM
same,TGI,[54],> 100 µM
same,TGI,[55],> 100 µM
same,TGI,[20],> 100 µM
same,TGI,[21],> 100 µM
same,TGI,[22],> 100 µM
same,TGI,[23],> 100 µM
same,TGI,[56],> 100 µM
same,TGI,[25],> 100 µM
same,TGI,[26],> 100 µM
same,TGI,[57],> 100 µM
same,TGI,[27],> 100 µM
same,TGI,[28],> 100 µM
same,TGI,[29],> 100 µM
same,TGI,[30],> 100 µM
same,TGI,[31],> 100 µM
same,TGI,[32],> 100 µM
same,TGI,[33],> 100 µM
same,TGI,[34],> 100 µM
same,TGI,[35],> 100 µM
same,TGI,[36],> 100 µM
same,TGI,[37],> 100 µM
same,TGI,[38],> 100 µM
same,TGI,[39],> 100 µM
same,TGI,[40],> 100 µM
same,TGI,[41],> 100 µM
same,TGI,[42],> 100 µM
same,TGI,[43],> 100 µM
same,TGI,[44],> 100 µM
same,TGI,[45],> 100 µM
same,TGI,[46],> 100 µM
same,TGI,[47],> 100 µM
same,TGI,[48],> 100 µM
